From US9593110B2, “Neprilysin inhibitors” (Theravence Biopharma R&D IP, LLC, priority 2014, dated 2017)

The molecules below were run against human NEP (Homo sapiens (Human), UniProt P08473) (assay: In vitro enzyme inhibition assay at human NEP). Details: pKi, recombinant human NEP, fluorogenic peptide substrate, 37° C.
Chain of human NEP (P08473 52-750): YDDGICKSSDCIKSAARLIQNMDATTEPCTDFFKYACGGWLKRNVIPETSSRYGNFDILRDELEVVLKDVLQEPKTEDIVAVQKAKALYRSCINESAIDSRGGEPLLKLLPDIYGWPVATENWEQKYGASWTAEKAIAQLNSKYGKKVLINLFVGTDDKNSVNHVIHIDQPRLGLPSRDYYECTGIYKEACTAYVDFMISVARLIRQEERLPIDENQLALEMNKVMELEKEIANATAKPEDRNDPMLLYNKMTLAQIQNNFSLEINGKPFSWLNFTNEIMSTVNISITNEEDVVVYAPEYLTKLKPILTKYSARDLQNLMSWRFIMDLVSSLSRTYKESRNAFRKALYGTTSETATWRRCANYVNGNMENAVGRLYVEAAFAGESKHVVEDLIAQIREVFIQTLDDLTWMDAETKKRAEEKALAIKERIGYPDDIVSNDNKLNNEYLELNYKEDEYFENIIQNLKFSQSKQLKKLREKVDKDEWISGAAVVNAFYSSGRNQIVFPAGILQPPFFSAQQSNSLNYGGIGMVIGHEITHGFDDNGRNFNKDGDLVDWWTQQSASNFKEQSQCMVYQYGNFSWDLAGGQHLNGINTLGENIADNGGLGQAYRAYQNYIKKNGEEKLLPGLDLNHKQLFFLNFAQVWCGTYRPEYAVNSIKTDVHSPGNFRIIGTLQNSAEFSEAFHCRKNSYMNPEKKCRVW

SMILES	Ki [nM]
NC[C@H](C[C@@H](Cc1ccc(-c2cc(Cl)ccc2F)cc1)NC(=O)c1coc(C2CC2)n1)C(=O)O [Example 21-2, (2S,4S)-2-Aminomethyl-5-(5′-chloro-2′-fluorobiphenyl-4-yl)-4-[(2-cyclopropyl-oxazole-4-carbonyl)amino]pentanoic acid]	1.26 to 3.16
CCOc1nc(C(=O)N[C@H](Cc2ccc(-c3cc(Cl)ccc3F)cc2)C[C@@H](CN)C(=O)O)co1 [Example 21-4, (2S,4S)-2-Aminomethyl-5-(5′-chloro-2′-fluorobiphenyl-4-yl)-4-[(2-ethoxy-oxazole-4-carbonyl)amino]pentanoic acid]	1.26 to 3.16
Cc1nc(C(=O)N[C@H](Cc2ccc(-c3cc(Cl)ccc3F)cc2)C[C@@H](CN)C(=O)O)co1 [Example 21-5, (2S,4S)-2-Aminomethyl-5-(5′-chloro-2′-fluorobiphenyl-4-yl)-4-[(2-methyloxazole-4-carbonyl)amino]pentanoic acid]	1.26 to 3.16
Cc1cc(C(=O)N[C@H](Cc2ccc(-c3cc(Cl)ccc3F)cc2)C[C@@H](CN)C(=O)O)sn1 [Example 21-6, (2S,4S)-2-Aminomethyl-5-(5′-chloro-2′-fluorobiphenyl-4-yl)-4-[(3-methylisothiazole-5-carbonyl)amino]pentanoic acid]	1.26 to 3.16
NC[C@H](C[C@@H](Cc1ccc(-c2cc(Cl)ccc2F)cc1)NC(=O)c1cnsc1)C(=O)O [Example 21-7, (2S,4S)-2-Aminomethyl-5-(5′-chloro-2′-fluorobiphenyl-4-yl)-4-[(isothiazole-4-carbonyl)amino]pentanoic acid]	1.26 to 3.16
NC[C@H](C[C@@H](Cc1ccc(-c2ccccc2)cc1)NC(=O)c1c[nH]nn1)C(=O)O [Example 22, (2S,4S)-2-Aminomethyl-5-biphenyl-4-yl-4-[(1H-[1,2,3]triazole-4-carbonyl)amino]pentanoic Acid]	1.26 to 3.16
Cc1cnc(C(=O)N[C@H](Cc2ccc(-c3cc(Cl)ccc3F)cc2)C[C@@H](CCN)C(=O)O)o1 [Example 23, (2R,4S)-2-(2-Aminoethyl)-5-(5′-chloro-2′-fluorobiphenyl-4-yl)-4-[(5-methyloxazole-2-carbonyl)amino]pentanoic Acid]	1.26 to 3.16
CC(C)c1coc(C(=O)N[C@H](Cc2ccc(-c3cc(Cl)ccc3F)cc2)C[C@@H](CCN)C(=O)O)n1 [Example 24-1, (2R,4S)-2-(2-Aminoethyl)-5-(5′-chloro-2′-fluorobiphenyl-4-yl)-4-[(4-isopropyloxazole-2-carbonyl)amino]pentanoic acid]	3.16 to 10
NCC[C@H](C[C@@H](Cc1ccc(-c2cc(Cl)ccc2F)cc1)NC(=O)c1cnn[nH]1)C(=O)O [Example 24-2, (2R,4S)-2-(2-Aminoethyl)-5-(5′-chloro-2′-fluorobiphenyl-4-yl)-4-[(3H-[1,2,3]triazole-4-carbonyl)amino]pentanoic acid]	1.26 to 3.16
CC(=O)N[C@H](C[C@@H](Cc1ccc(-c2ccccc2F)cc1)NC(=O)c1c[nH]nn1)C(=O)O [Example 25, (2R,4R)-2-Acetylamino-5-(2′-fluorobiphenyl-4-yl)-4-[(1H-[1,2,3]triazole-4-carbonyl)amino]pentanoic Acid]	3.16 to 10
CC(=O)N[C@H](C[C@@H](Cc1ccc(-c2ccccc2)cc1)NC(=O)c1c[nH]nn1)C(=O)O [Example 26, (2R,4R)-2-Acetylamino-5-biphenyl-4-yl-4-[(1H-[1,2,3]triazole-4-carbonyl)amino]pentanoic Acid]	3.16 to 10
CCC(=O)N[C@H](C[C@@H](Cc1ccc(-c2ccccc2)cc1)NC(=O)c1c[nH]nn1)C(=O)O [Example 27, (2R,4R)-5-Biphenyl-4-yl-2-propionylamino-4-[(1H-[1,2,3]triazole-4-carbonyl)amino]pentanoic Acid]	3.16 to 10
CCOc1oc(C(=O)N[C@H](Cc2ccc(-c3cc(Cl)ccc3F)cc2)C[C@@H](NC(=O)OC)C(=O)O)nc1C [Example 30-8, (2R,4R)-5-(5′-Chloro-2′-fluorobiphenyl-4-yl)-4-[(5-ethoxy-4-methyl-oxazole-2-carbonyl)amino]-2-methoxycarbonylaminopentanoic acid]	1.26 to 3.16
COC(=O)N[C@H](C[C@@H](Cc1ccc(-c2ccccc2)cc1)NC(=O)c1c[nH]nn1)C(=O)O [Example 31, (2R,4R)-5-Biphenyl-4-yl-2-methoxycarbonylamino-4-[(1H-[1,2,3]triazole-4-carbonyl)amino]pentanoic Acid]	1.26 to 3.16
NCC(=O)N[C@H](C[C@@H](Cc1ccc(-c2ccccc2F)cc1)NC(=O)c1c[nH]nn1)C(=O)O [Example 32, (2R,4R)-2-(2-Aminoacetylamino)-5-(2′-fluorobiphenyl-4-yl)-4-[(1H-[1,2,3]triazole-4-carbonyl)amino]pentanoic Acid]	3.16 to 10
CC(C)c1coc(C(=O)N[C@H](Cc2ccc(-c3cc(Cl)ccc3F)cc2)C[C@@H](NC(=O)CN)C(=O)O)n1 [Example 34-1, (2R,4R)-2-(2-Aminoacetylamino)-5-(5′-chloro-2′-fluorobiphenyl-4-yl)-4-[(4-isopropyloxazole-2-carbonyl)amino]pentanoic acid]	1.26 to 3.16
CC(C)c1coc(C(=O)N[C@H](Cc2ccc(-c3cc(Cl)ccc3F)cc2)C[C@@H](NC(=O)C(C)(C)N)C(=O)O)n1 [Example 35, (2R,4R)-2-(2-Amino-2-methylpropionylamino)-5-(5′-chloro-2′-fluorobiphenyl-4-yl)-4-[(4-isopropyloxazole-2-carbonyl)amino]pentanoic Acid]	3.16 to 10
CC(C)c1coc(C(=O)N[C@H](Cc2ccc(-c3cc(Cl)ccc3F)cc2)C[C@@H](NC(=O)[C@H](C)N)C(=O)O)n1 [Example 36-1, (2R,4R)-2-((S)-2-Aminopropionylamino)-5-(5′-chloro-2′-fluorobiphenyl-4-yl)-4-[(4-isopropyloxazole-2-carbonyl)amino]pentanoic Acid]	1.26 to 3.16

Same assay, conditions: recombinant human NEP, fluorogenic peptide substrate, 37° C.

SMILES	pKi
NC[C@H](C[C@@H](Cc1ccc(-c2cc(Cl)ccc2F)cc1)NC(=O)c1c[nH]nn1)C(=O)O [Example 20, (2S,4S)-2-Aminomethyl-5-(5′-chloro-2′-fluorobiphenyl-4-yl)-4-[(1H-[1,2,3]triazole-4-carbonyl)amino]pentanoic Acid]	≧9.0
Cc1cnc(C(=O)N[C@H](Cc2ccc(-c3cc(Cl)ccc3F)cc2)C[C@@H](CN)C(=O)O)o1 [Example 21-3, (2S,4S)-2-Aminomethyl-5-(5′-chloro-2′-fluorobiphenyl-4-yl)-4-[(5-methyl-oxazole-2-carbonyl)amino]pentanoic acid]	≧9.0
CC(=O)NC[C@H](C[C@@H](Cc1ccc(-c2cc(Cl)ccc2F)cc1)NC(=O)c1c[nH]nn1)C(=O)O [Example 28, (2S,4S)-2-(Acetylaminomethyl)-5-(5′-chloro-2′-fluoro-biphenyl-4-yl)-4-[(1H-[1,2,3]triazole-4-carbonyl)amino]pentanoic Acid]	≧9.0
NCC(=O)N[C@H](C[C@@H](Cc1ccc(-c2cc(Cl)ccc2F)cc1)NC(=O)c1c[nH]nn1)C(=O)O [Example 33, (2R,4R)-2-(2-Aminoacetylamino)-5-(5′-chloro-2′-fluoro-biphenyl-4-yl)-4-[(1H-[1,2,3]triazole-4-carbonyl)amino]pentanoic Acid]	≧9.0

Other lines, results leading:

pKi	SMILES
≧9.0	COC(=O)N[C@H](C[C@@H](Cc1ccc(-c2cc(Cl)ccc2F)cc1)NC(=O)c1c[nH]nn1)C(=O)O [Example 30-1, (2R,4R)-5-(5′-Chloro-2′-fluoro-biphenyl-4-yl)-2-methoxycarbonylamino-4-[(1H-[1,2,3]triazole-4-carbonyl)amino]pentanoic acid]
≧9.0	COC(=O)N[C@H](C[C@@H](Cc1ccc(-c2cc(Cl)ccc2F)cc1)NC(=O)c1cc(C(C)=O)n[nH]1)C(=O)O [Example 30-2, (2R,4R)-4-[(5-Acetyl-2H-pyrazole-3-carbonyl)-amino]-5-(5′-chloro-2′-fluoro-biphenyl-4-yl)-2-methoxycarbonylaminopentanoic acid]
≧9.0	COC(=O)N[C@H](C[C@@H](Cc1ccc(-c2cc(Cl)ccc2F)cc1)NC(=O)c1ncco1)C(=O)O [Example 30-3, (2R,4R)-5-(5′-Chloro-2′-fluoro-biphenyl-4-yl)-2-methoxycarbonylamino-4-[(oxazole-2-carbonyl)amino]pentanoic acid]
≧9.0	COC(=O)N[C@H](C[C@@H](Cc1ccc(-c2cc(Cl)ccc2F)cc1)NC(=O)c1coc(C2CC2)n1)C(=O)O [Example 30-5, (2R,4R)-5-(5′-Chloro-2′-fluorobiphenyl-4-yl)-4-[(2-cyclopropyl-oxazole-4-carbonyl)amino]-2-methoxycarbonylaminopentanoic acid]
≧9.0	CCOc1nc(C(=O)N[C@H](Cc2ccc(-c3cc(Cl)ccc3F)cc2)C[C@@H](NC(=O)OC)C(=O)O)co1 [Example 30-7, (2R,4R)-5-(5′-Chloro-2′-fluorobiphenyl-4-yl)-4-[(2-ethoxy-oxazole-4-carbonyl)amino]-2-methoxycarbonylaminopentanoic acid]
≧9.0	COC(=O)N[C@H](C[C@@H](Cc1ccc(-c2cc(Cl)ccc2F)cc1)NC(=O)c1noc(=O)[nH]1)C(=O)O [Example 30-9, (2R,4R)-5-(5′-Chloro-2′-fluorobiphenyl-4-yl)-2-methoxycarbonylamino-4-[(5-oxo-4,5-dihydro-[1,2,4]oxadiazole-3-carbonyl)amino]pentanoic acid]
≧9.0	COC(=O)N[C@H](C[C@@H](Cc1ccc(-c2cc(Cl)ccc2F)cc1)NC(=O)c1c[nH]c(=O)o1)C(=O)O [Example 30-10, (2R,4R)-5-(5′-Chloro-2′-fluorobiphenyl-4-yl)-2-methoxycarbonylamino-4-[(2-oxo-2,3-dihydro-oxazole-5-carbonyl)amino]pentanoic acid]
≧9.0	COC(=O)N[C@H](C[C@@H](Cc1ccc(-c2cc(Cl)ccc2F)cc1)NC(=O)c1coc(=O)[nH]1)C(=O)O [Example 30-11, (2R,4R)-5-(5′-Chloro-2′-fluorobiphenyl-4-yl)-2-methoxycarbonylamino-4-[(2-oxo-2,3-dihydro-oxazole-4-carbonyl)amino]pentanoic acid]
